Measured values reported in publication PMC11388068, “Amide naphthotube as a novel supramolecular sequestration agent for tetracaine and decamethonium” (Theranostics, 2024).
Values joined by “and” are separate entries in the source; they are usually repeats but may differ in a detail not shown here. Identical values can stand only once. Like-named read-outs stand apart in the source and are kept apart here.

Legend:
Human myocytes AC16 cell = test: CCK-8 cytotoxicity assay in AC16 cells; type: cell-based; details: 24 h, 24 h incubation, mixtures in a 1:1 ratio
Method: Cells experiments: AC16 cells were cultured in DMEM/F12 with 10% FBS, 1% penicillin, and 1% streptomycin at 37 °C with 5% CO2, and passaged every 2 days. They were seeded into 96-well plates at a density of 5-8×10^3 cells per well and cultured overnight. Then, different concentrations of TC, 1a, 1b, TC@1a and TC@1b mixture solution at various concentrations (25, 50, […], […], 200, 400, 800, and 1600 μM) were added to replace the culture medium for 24 h at 37 °C. After incubation, Cell Counting Kit-8 solution (10 μL per well) was added, and cells were incubated for 4 h at 37 °C. The optical density values at 450 nm were measured using a microplate reader to assess cell viability as a percentage of control cells. Finally, IC50 values were calculated using GraphPad Prism 8.0.2 software.
The assay and cell viability were calculated as in the cell experiment above.

[1] = Lethal TC poisoning mouse model (Dixon's up-and-down, probit); type: in vivo, female Balb/c mice; details: female, Balb/c, mouse, in vivo, iv, TC i.v., mice, probit analysis
Method: (§1) Lethal TC poisoning mouse model: the lethal dose of i.v. administered TC was calculated in mice (8-10 week old female Balb/c mice, weighing 20-25 g) using Dixon's up-and-down method. The initial dose of TC given to the first mouse was 9.0 mg/kg, and the standard dose ratio of TC given to the adjacent mouse was 0.9. If the animal survives, the subsequent animal receives a higher dose. If the animal dies, the following animal receives a lower dose. This process was repeated until at least seven crossover points were achieved. Probit analysis was employed to determine the LD50 (50% lethal dose) and LD95 (95% lethal dose) of TC, along with their corresponding CI (confidence intervals). Sequence diagrams and dose-response curves were generated using GraphPad Prism 9 software.

Balb/c mice [2] = test: as above; type: in vivo, female Balb/c mice; details: TC i.v., probit analysis
Method: as §1

AC16 cells [3] = test: Plasma membrane potential, DiBAC4(3) flow cytometry; type: cell-based, Human; details: AC16 cells exposed to TC for 10 minutes
Method: Determination of the plasma membrane potential: AC16 cells were seeded into 12-well plates and cultured until reaching 80-90% confluence. Following removal of the culture medium, cells were exposed to HBSS (Hank's Balanced Salt Solution) containing […] TC for 10 minutes at 37 °C. Subsequently, cells were collected and incubated with 200 nM Bis-(1,3-Dibutylbarbituric Acid)-Trimethine Oxanol (DiBAC4(3), Solarbio) for 20 minutes at 37 °C. The fluorescence intensity of cells was then assessed using flow cytometry. To determine the impact of 1b (ammonium salt) on plasma membrane potential, 25×10^4 AC16 cells were co-incubated with 400 µM TC and varying concentrations of 1b (0, 400, 800, and 2000 µM) or exclusively with 1b (2000 µM) in HBSS for 10 minutes at 37 °C. Plasma membrane potential was subsequently evaluated using the aforementioned methodology.

AC16 cells [4] = test: Intracellular sodium levels; type: cell-based, Human; details: TC 400 µM, 10 minutes
Method: Determination of intracellular sodium levels: 3×10^5 AC16 cells were seeded in 6-well plates with 2 mL of medium. After 12 hours, the cell medium was replaced with 400 µM TC and varying concentrations of compound 1b (ammonium salt, 0, 400, 800, and 2000 µM) or 2000 µM 1b in HBSS for 10 minutes at 37 °C. Control cells were treated with 2 mL HBSS for 10 minutes at 37 °C. After washing with PBS, cells were lysed in 300 µL of 1% Triton X-100 in saline with a 1% proteinase inhibitor cocktail from Meilunbio. The lysates were centrifuged at 12,000 ×g for 15 minutes, and the supernatant was collected for sodium level determination (7600 Modular-Hitachi-Chemistry Analyzer) and total protein content BCA assays (Epizyme Biotech). The sodium-to-protein ratio was calculated, presenting results as relative intracellular sodium content compared to the control group.

[5] = Lethal C10 poisoning mouse model (Dixon's up-and-down, probit); type: in vivo; details: Balb/c, mouse, in vivo, iv; C10 i.v., mice, probit analysis
Method: (§2) Lethal C10 poisoning mouse model: the lethal dose of i.v. administered C10 was calculated using Dixon's up-and-down method similar to TC. The initial dose of C10 was 0.9 mg/kg. Subsequent doses for each mouse were adjusted by ±0.1 mg/kg based on the outcome of the preceding animal.

mice = test: as above; type: in vivo; details: C10 i.v., probit analysis
Method: as §2

Balb/c mice [6] = test: C10-induced paralysis dose in a mouse model (Rotarod); type: in vivo, Female Balb/c mice; details: C10 i.v., probit analysis
Method: Determination of C10-induced paralysis dose in a mouse model: The movement behavior was conducted with the Rotarod rotor (ZB-200). Female Balb/c mice (8-9 weeks old) weighing 18-22 g were placed on the Rotarod rotor and trained three times for 30 minutes, three times a day for three consecutive days. On day 4, Dixon's up-and-down method was employed to explore the effective dose: The initial dose of C10 to the first mouse was 0.6 mg/kg, and the standard dose ratio of C10 given to the adjacent mouse was 0.8. […] Conversely, in the case of a negative response, the following mouse received an increased dose. Tests were conducted sequentially, with changes in mobility response transitioning between positive and negative until at least 7 crossover points were reached. Probit analysis was employed to determine the ED50 (50% effective dose) and ED95 (95% effective dose) of C10, along with their corresponding CI (confidence intervals). Sequence diagrams and dose-response curves were generated using GraphPad Prism 9 software.

C10-induced paralysis = test: Mobility recovery assessment in a mouse model (Rotarod); type: in vivo, Female Balb/c mice; details: mice given C10 0.53 mg/kg, no 1b
Method: Mobility recovery assessment in a mouse model: the trained mice for 4 days were i.v. administered with either 4 mg/kg or 6 mg/kg of 1b, or saline, 30 seconds after administering 0.53 mg/kg C10. The mice were then placed on the rotor, and the time taken to move on the rotor for 30 seconds successfully was recorded.

[7] = Plasma pharmacokinetics of C10, saline- and 1b-treated groups; type: in vivo, Male Kunming mice; details: for AUC(0-inf) / AUC(0-t) / Cmax / MRT last / MRT inf / half-life / Vd: plasma; for MRT last: read-out: MRT0-t; for MRT inf: read-out: MRT0-∞; for half-life: read-out: T1/2z (converted); for Vd: read-out: Vz
Method: Male Kunming mice (30 ± 2 g) were used in the pharmacokinetic study. Drugs were injected through the tail vein of mice. Blood, liver, and kidney tissues were collected at certain intervals after administration with 6 mice at each time point. Blood samples were placed in heparin sodium tubes and centrifuged at 6000 rpm for 20 minutes at 4^ oC to obtain plasma samples. Plasma, liver and kidney tissues were stored in a freezer at -80 °C and frozen until analysis was performed. The drug concentrations were determined by Liquid chromatography-mass spectrometry (Waters ACQUITY UPLC/Xevo TQ-S). The Masslynx 4.1 software was used to obtain the peak area of the tested compounds and internal standards in each plasma sample and calculate the standard curve formula. […] The detailed pharmacokinetics experiment procedure including materials and reagents, sample preparation, establishment and validation of analytical strategy, and LC-MS conditions are described in the Supporting Information.
1.3. A dministration and collection of plasma samples
Male Kunming mice (30±2g) were randomly divided into 5 groups, namely 1b group (dose 80mg/kg, concentration 20mg/ml), C10 group (dose 0.45mg/kg, concentration 0.125mg/ml, C10 injection for 30s followed by the same volume of normal saline), 1b combined with C10 group (C10 dose 0.45 mg/kg, C10 concentration 0.125mg/ml, C10 injection for 30s followed by 1b 6 mg/kg, 1b concentration 1.5 mg/ml). Drugs were injected through the tail vein of mice. In group 1b , eyeball blood and liver and […]
after administration, with 6 mice in each time point. In the other four groups, blood and liver and kidney tissues were collected from eyeballs at 3min, 5min, 10min, 15min, 30min, 45min and 1h after administration. Six mice were selected at each time point. Blood samples were placed in heparin sodium tubes and centrifuged at 6000rpm for 20 minutes at 4℃ to obtain plasma samples. They were stored in a refrigerator at - 80 ° C and frozen until analysis. Plasma, liver and kidney tissues were stored in a freezer at - 80 ℃ and then frozen until analysis was performed.
1.4. Preparation of Calibration Standards and Quality Control (QC) Samples 1b, C10, and IS were dissolved separately in methanol to get a stock solution concentration of 1.0 mg/mL. The stock solution of the drug to be tested was then diluted with methanol to prepare the working solution. Calibration standards and QC samples were prepared by diluting the working solution with methanol. The final concentrations of C10 were 25, 250 and 1000 ng/mL, 1b final concentration of 150, 1500 and 6000 ng/mL.The final concentration of IS is 10 ng/mL.
1.5.Mouse plasma sample preparation
The plasma to be tested was thawed at room temperature, and 100 μL of mouse plasma samples were collected in 1.5 mL EP tubes. 10 μL of IS solution (10 ng/mL) and 10 μL of methanol were mixed followed by the addition of 400 μL […] (1:1 v / v), and then the tubes were vortex mixed for 3.0 min.
After centrifugation at 13,000 rpm for 20 min at 4 °C, the supernatant was transferred to a nitrogen blower, and the solvent was dried by maintaining a steady flow of nitrogen. After drying the solvent, reconstituted with 100 μL 20% aqueous methanol

[8] = male, Kunming, mouse, iv, 0.45 mg/kg, C10 in plasma, Saline-treated Group
[9] = male, Kunming, mouse, iv, 0.45 mg/kg, C10 in plasma, 1b-treated Group

For `CCCCNc1ccc(C(=O)OCCN(C)C)cc1` [TC, Tetracaine], the IC50 (Human myocytes AC16 cell) was 384 µM, the LD50 [1] was 6.92 mg/kg and the LD50 (Balb/c mice [2]) was 6.9 mg/kg. The LD95 (Balb/c mice [2]) was 8.749 mg/kg and 8.7 mg/kg, the “mean fluorescence intensity (plasma membrane potential)” value (AC16 cells [3]) was “significant rise in mean fluorescence intensity” and the intracellular sodium loss (AC16 cells [4]) was “approximately 20%”.

With `C[N+](C)(C)CCCCCCCCCC[N+](C)(C)C` [C10, Decamethonium] the LD50 [5] was 0.69 mg/kg, the LD95 (mice) was 0.86 mg/kg and the “ED95 for inducing muscle paralysis” value (Balb/c mice [6]) was 0.53 mg/kg. For the same compound, the ED50 (Balb/c mice [6]; Mus musculus, iv, read-out: ED50 for inducing muscle paralysis) was 0.37 mg/kg, the average recovery time (C10-induced paralysis) was “approximately 402.8 seconds” and the CL ([7]; C10 in plasma, 1b-treated Group) was 1.12 ± 0.22 mL/h/g. It also gave a CL ([7]; C10 in plasma, Saline-treated Group) of 1.54 ± 0.16 mL/h/g, a Tmax [7, 8] of 3 min and an AUC(0-inf) ([7]; male, Kunming, mouse, iv, 0.45 mg/kg, C10, 1b-treated Group, read-out: area under the plasma concentration-time curve (AUC0-∞)) of 414 ± 80.9 ng·h/mL. For the same compound, the AUC(0-inf) ([7]; male, Kunming, mouse, iv, 0.45 mg/kg, C10, saline-treated Group, read-out: area under the plasma concentration-time curve (AUC0-∞)) was 294 ± 28 ng·h/mL, the AUC(0-t) [7, 9] was 406 ± 77.2 ng·h/mL and the Cmax [7, 9] was 1630 ± 345 ng/mL. For the same compound, the AUC(0-inf) ([7]; male, Kunming, mouse, iv, 0.45 mg/kg, C10 in plasma, 1b-treated Group, read-out: AUC0-∞) was 414 ± 80.9 ng·h/mL, the MRT last [7, 9] was 9 ± 1.2 min and the MRT inf [7, 9] was 10.2 ± 1.8 min. For the same compound, the half-life [7, 9] was 11.4 ± 1.2 min, the Vd [7, 9] was 0.3 ± 0.06 L/kg and the AUC(0-t) [7, 8] was 284 ± 26.4 ng·h/mL. For the same compound, the Cmax [7, 8] was 1310 ± 179 ng/mL, the AUC(0-inf) ([7]; male, Kunming, mouse, iv, 0.45 mg/kg, C10 in plasma, Saline-treated Group, read-out: AUC0-∞) was 294 ± 28 ng·h/mL and the MRT last [7, 8] was 6.6 ± 1.2 min. It also gave an MRT inf [7, 8] of 9.6 ± 2.4 min, a half-life [7, 8] of 21.6 ± 9.6 min and a Vd [7, 8] of 0.8 ± 0.33 L/kg.
